Among the data in the supplement of paper PMC11061612 are Bliss excess values, retold here.

Common to all, as to assay: Bliss excess, mean over the matrix (fraction); higher = more synergy
Test [1] concerns MDA-MB-361 (Breast Carcinoma). The gist of the method: (§1)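 Bliss excess equals the observed combination effect minus the expected value EA + EB − EA·EB, where EA and EB are the effects of each agent alone. Combination Emax is the second-highest inhibition within the matrix. Inhibition was scaled from CellTiter-Glo 2.0 luminescence, with 0 set by vehicle wells and 1 by blank wells, after 72 hours of two-drug dosing of cells plated in 1536-well plates.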

Test [2] deals with TCCSUP (Bladder Carcinoma). A digest of the protocol:
as §1

Test [3] deals with HT-1376 (Bladder Carcinoma). The gist of the method:
as §1

Test [4] relates to MFE-296 (Endometrial Carcinoma). A digest of the protocol:
as §1

In test [5] the test system is KP-1N (Pancreatic Carcinoma). A digest of the protocol: as §1
Test [6] relates to LNCaP-Clone-FGC (Prostate Carcinoma). The gist of the method: as §1
Test [7] concerns NOS-1 (Osteosarcoma). The gist of the method:
as §1

The test system of test [8] is NB10 (Neuroblastoma). A digest of the protocol:
as §1

The subject of test [9] is B-CPAP (Thyroid Gland Carcinoma). A digest of the protocol:
as §1

Test [10] has as its system LS-180 (Colorectal Carcinoma). A digest of the protocol: as §1
The subject of test [11] is UM-UC-3 (Bladder Carcinoma). A digest of the protocol:
as §1

Test [12] has as its system HCC1806 (Breast Carcinoma). The gist of the method: as §1
For test [13], the system named is Calu-3 (Lung Adenocarcinoma). The gist of the method:
as §1

In test [14] the test system is CaR-1 (Colorectal Carcinoma). The gist of the method:
as §1

Test [15] deals with SK-ES-1 (Ewing's Sarcoma). The gist of the method:
as §1

Test [16] relates to DoTc2-4510 (Cervical Carcinoma). A digest of the protocol: as §1
In test [17] the test system is HuP-T4 (Pancreatic Carcinoma). A digest of the protocol: as §1
Test [18] relates to NCI-H2085 (Non-Small Cell Lung Carcinoma). The gist of the method: as §1
The subject of test [19] is Ramos-2G6-4C10 (Burkitt's Lymphoma). A digest of the protocol:
as §1

Test [20] deals with ES4 (Ewing's Sarcoma). A digest of the protocol: as §1

Take `Cn1cnc2c(F)c(Nc3ccc(Br)cc3Cl)c(C(=O)NOCCO)cc21` [Selumetinib] + CCN(CCO)CCCOc1ccc2c(Nc3cc(CC(=O)Nc4cccc(F)c4)[nH]n3)ncnc2c1 [AZD2811] (first compound max 10 µM, 7x7, partner max 1 µM): the Bliss excess in test [1] is -0.004; in [2] it was -0.0822; in test [3], -0.0488; in [4] it was -0.0309; in test [5] it was -0.0461; in test [6], 0.0253. Further, the Bliss excess is -0.0092 in test [7]; -0.0402 in test [8]; 0.001 in test [9]; -0.0541 in test [10]; -0.048 in test [11]; -0.0063 in test [12]. Moreover, the Bliss excess was -0.0353 in [13]; 0.0301 in [14]; -0.0272 in [15]; -0.0098 in [16]; -0.0161 in [17]; -0.0589 in test [18]. Moreover, the Bliss excess is -0.0321 in test [19] and -0.0398 in test [20].
Regarding `Cn1cnc2c(F)c(Nc3ccc(Br)cc3Cl)c(C(=O)NOCCO)cc21` [Selumetinib] + C[C@@H]1COCCN1C2=NC(=NC(=C2)C3(CC3)[S@](=N)(=O)C)C4=C5C=CNC5=NC=C4 [AZD6738] (first compound max 10 µM, 7x7, partner max 10 µM), the Bliss excess in test [1] is -0.0396; in [2], -0.0141; in test [3], -0.021; in [4], -0.0543; in test [5], -0.0061; in [6] it was -0.0018. Further, the Bliss excess was 0.043 in test [7]; -0.0247 in test [8]; -0.0026 in test [9]; -0.0516 in test [10]; 0.0057 in [11]; 0.0496 in [12]. Further, the Bliss excess in test [13] is -0.0295; in [14], -0.069; in test [15], -0.005; in test [16] it was -0.0282; in test [17] it was 0.0891; in [18] it was -0.0063. The Bliss excess in test [19] is -0.0714; in test [20], -0.039.
As to `CC(=O)Nc1cccc(-n2c(=O)n(C3CC3)c(=O)c3c(Nc4ccc(I)cc4F)n(C)c(=O)c(C)c32)c1` [Trametinib] + Cc1nc(-c2cn3c(n2)-c2ccc(-c4cnn(C(C)(C)C(N)=O)c4)cc2OCC3)n(C(C)C)n1 [Taselisib] (first compound max 1 µM, 7x7, partner max 10 µM), the Bliss excess in [1] was 0.0263; in test [2], 0.0896; in test [3], 0.0546; in [4], 0.0323; in test [5], 0.101; in test [6], -0.0056. The Bliss excess in test [7] turned out to be 0.191; in test [8], 0.118; in test [9], 0.141; in test [10], 0.0957; in test [11] it was 0.137; in test [12], 0.257. Besides, the Bliss excess in test [13] amounted to 0.162; in test [14], 0.0783; in test [15] it was 0.0641; in test [16] it was 0.143; in test [17], 0.241; in test [18], 0.0062. The Bliss excess in test [19] is -0.0053; in [20], 0.0891.
`CC1(C)CCC(CN2CCN(c3ccc(C(=O)NS(=O)(=O)c4ccc(NCC5CCOCC5)c([N+](=O)[O-])c4)c(Oc4cnc5[nH]ccc5c4)c3)CC2)=C(c2ccc(Cl)cc2)C1` [Venetoclax] + C1CN(CCC1(C(=O)N[C@@H](CCO)C2=CC=C(C=C2)Cl)N)C3=NC=NC4=C3C=CN4 [Capivasertib] (first compound max 1 µM, 7x7, partner max 3 µM): the Bliss excess is 0.0068 in [1]; -0.0196 in test [2]; -0.0621 in test [3]; -0.0063 in [4]; -0.0193 in test [5]; -0.0464 in test [6]. Also, the Bliss excess is -0.0157 in test [7]; -0.0808 in test [8]; -0.0312 in [9]; -0.0173 in test [10]; 0.0009 in test [11]; -0.0087 in test [12]. The Bliss excess is -0.0116 in test [13]; -0.0045 in test [14]; 0.0068 in test [15]; -0.0185 in [16]; -0.033 in test [17]; -0.0569 in test [18]. For the same compound, the Bliss excess was 0.0177 in test [19] and -0.0231 in test [20].
For `CC1(C)CCC(CN2CCN(c3ccc(C(=O)NS(=O)(=O)c4ccc(NCC5CCOCC5)c([N+](=O)[O-])c4)c(Oc4cnc5[nH]ccc5c4)c3)CC2)=C(c2ccc(Cl)cc2)C1` [Venetoclax] + C=CCn1c(=O)c2cnc(Nc3ccc(N4CCN(C)CC4)cc3)nc2n1-c1cccc(C(C)(C)O)n1 [AZD1775] (first compound max 1 µM, partner max 1 µM), the Bliss excess was 0.0331 in test [1]; -0.055 in test [2]; -0.0226 in test [3]; -0.0391 in test [4]; -0.047 in [5]; -0.0599 in test [6]. The Bliss excess in test [7] is 0.0193; in [8] it was -0.0113; in test [9], -0.0835; in test [10] it was -0.0559; in test [11], -0.0225; in [12], -0.026. Moreover, the Bliss excess is -0.0074 in [13]; -0.0159 in [14]; 0.0455 in [15]; 0.0075 in [16]; -0.0443 in [17]; -0.063 in [18]. The Bliss excess was 0.127 in [19] and -0.0268 in test [20].
In the case of `CC1(C)CCC(CN2CCN(c3ccc(C(=O)NS(=O)(=O)c4ccc(NCC5CCOCC5)c([N+](=O)[O-])c4)c(Oc4cnc5[nH]ccc5c4)c3)CC2)=C(c2ccc(Cl)cc2)C1` [Venetoclax] + CCN(CCO)CCCOc1ccc2c(Nc3cc(CC(=O)Nc4cccc(F)c4)[nH]n3)ncnc2c1 [AZD2811] (first compound max 1 µM, 7x7, partner max 1 µM), the Bliss excess was 0.0884 in test [1]; -0.0259 in [2]; -0.0605 in test [3]; -0.013 in [4]; -0.0182 in test [5]; -0.0706 in [6]. The Bliss excess was -0.0156 in [7]; -0.0539 in [8]; 0.0031 in test [9]; -0.0106 in test [10]; -0.0234 in [11]; 0.0137 in test [12]. Also, the Bliss excess in test [13] is -0.0057; in test [14] it was -0.055; in [15], 0.0156; in [16] it was -0.0189; in test [17], -0.0061; in [18], -0.0189. In addition, the Bliss excess in test [19] was 0.0321; in test [20], -0.029.
